Laboratory results as given in ChEMBL document CHEMBL3774317, “Design and synthesis of novel tamoxifen analogues that avoid CYP2D6 metabolism” (Eur J Med Chem, 2016).

Legend:
Type in all cases: functional
[1] = Cytotoxicity against human BT549 cells assessed as cell growth at 10^-4 M after 48 hrs by SRB assay; settings: BT-549, 48 h, read-out: Activity
[2] = Cytotoxicity against human HOP92 cells assessed as cell growth at 10^-5 M after 48 hrs by SRB assay; settings: HOP-92, 48 h, read-out: Activity
786-0 [3] = assay: Cytotoxicity against human 786-0 cells assessed as cell growth at 10^-7 M after 48 hrs by SRB assay; settings: 786-0, 48 h, read-out: Activity
[4] = Cytotoxicity against human HCT15 cells assessed as cell growth at 10^-8 M after 48 hrs by SRB assay; settings: HCT-15, 48 h, read-out: Activity
[5] = Cytotoxicity against human SKOV3 cells assessed as cell growth at 10^-8 M after 48 hrs by SRB assay; settings: SK-OV-3, 48 h, read-out: Activity
A498 [6] = assay: Cytotoxicity against human A498 cells assessed as cell growth at 10^-5 M after 48 hrs by SRB assay; settings: A498, 48 h, read-out: Activity
[7] = Cytotoxicity against human HCC2998 cells assessed as cell growth at 10^-4 M after 48 hrs by SRB assay; settings: HCC 2998, 48 h, read-out: Activity
MDA-MB-435 = assay: Cytotoxicity against human MDA-MB-435 cells assessed as cell growth at 10^-5 M after 48 hrs by SRB assay; settings: MDA-MB-435, 48 h, read-out: Activity
[8] = Cytotoxicity against human SF295 cells assessed as cell growth at 10^-4 M after 48 hrs by SRB assay; settings: SF-295, 48 h, read-out: Activity
EKVX = assay: Cytotoxicity against human EKVX cells assessed as cell growth at 10^-5 M after 48 hrs by SRB assay; settings: read-out: Activity
[9] = Cytotoxicity against human SF268 cells assessed as cell growth at 10^-8 M after 48 hrs by SRB assay; settings: SF-268, 48 h, read-out: Activity
A498 [10] = assay: Cytotoxicity against human A498 cells assessed as cell growth at 10^-4 M after 48 hrs by SRB assay; settings: A498, 48 h, read-out: Activity
SN12C [11] = assay: Cytotoxicity against human SN12C cells assessed as cell growth at 10^-7 M after 48 hrs by SRB assay; settings: read-out: Activity
[12] = Cytotoxicity against human RPMI8226 cells assessed as cell growth at 10^-4 M after 48 hrs by SRB assay; settings: RPMI-8226, 48 h, read-out: Activity
NCI-H322M [13] = assay: Cytotoxicity against human NCI-H322M cells assessed as cell growth at 10^-6 M after 48 hrs by SRB assay; settings: read-out: Activity
[14] = Cytotoxicity against human UACC62 cells assessed as cell growth at 10^-7 M after 48 hrs by SRB assay; settings: UACC-62, 48 h, read-out: Activity
786-0 [15] = assay: Cytotoxicity against human 786-0 cells assessed as cell growth at 10^-6 M after 48 hrs by SRB assay; settings: 786-0, 48 h, read-out: Activity
Malme-3M [16] = assay: Cytotoxicity against human MALME-3M cells assessed as cell growth at 10^-4 M after 48 hrs by SRB assay; settings: read-out: Activity
[17] = Cytotoxicity against human OVCAR3 cells assessed as cell growth at 10^-5 M after 48 hrs by SRB assay; settings: OVCAR-3, 48 h, read-out: Activity
[18] = Cytotoxicity against human BT549 cells assessed as cell growth at 10^-7 M after 48 hrs by SRB assay; settings: BT-549, 48 h, read-out: Activity
[19] = Cytotoxicity against human RPMI8226 cells assessed as cell growth at 10^-8 M after 48 hrs by SRB assay; settings: RPMI-8226, 48 h, read-out: Activity
[20] = Cytotoxicity against human UACC62 cells assessed as cell growth at 5 nM after 48 hrs by SRB assay; settings: UACC-62, 48 h, read-out: Activity
[21] = Cytotoxicity against human RPMI8226 cells assessed as cell growth at 0.5 uM after 48 hrs by SRB assay; settings: RPMI-8226, 48 h, read-out: Activity
[22] = Cytotoxicity against human SF539 cells assessed as cell growth at 5 nM after 48 hrs by SRB assay; settings: SF-539, 48 h, read-out: Activity
[23] = Cytotoxicity against human PC3 cells assessed as cell growth at 5 nM after 48 hrs by SRB assay; settings: PC-3, 48 h, read-out: Activity
M14 = assay: Cytotoxicity against human M14 cells assessed as cell growth at 0.5 uM after 48 hrs by SRB assay; settings: M14, 48 h, read-out: Activity
NCI-H522 = assay: Cytotoxicity against human NCI-H522 cells assessed as cell growth at 50 nM after 48 hrs by SRB assay; settings: NCI-H522, 48 h, read-out: Activity
KM12 = assay: Cytotoxicity against human KM12 cells assessed as cell growth at 50 nM after 48 hrs by SRB assay; settings: KM12, 48 h, read-out: Activity
[24] = Cytotoxicity against human BT549 cells assessed as cell growth at 50 uM after 48 hrs by SRB assay; settings: BT-549, 48 h, read-out: Activity
MDA-MB-468 = assay: Cytotoxicity against human MDA-MB-468 cells assessed as cell growth at 5 nM after 48 hrs by SRB assay; settings: MDA-MB-468, 48 h, read-out: Activity
SN12C [25] = assay: Cytotoxicity against human SN12C cells assessed as cell growth at 5 uM after 48 hrs by SRB assay; settings: read-out: Activity
[26] = Cytotoxicity against human DU145 cells assessed as cell growth at 50 uM after 48 hrs by SRB assay; settings: DU-145, 48 h, read-out: Activity
[27] = Cytotoxicity against human OVCAR8 cells assessed as cell growth at 50 uM after 48 hrs by SRB assay; settings: OVCAR-8, 48 h, read-out: Activity
NCI-H322M [28] = assay: Cytotoxicity against human NCI-H322M cells assessed as cell growth at 50 nM after 48 hrs by SRB assay; settings: read-out: Activity
[29] = Cytotoxicity against human UACC62 cells assessed as cell growth at 50 nM after 48 hrs by SRB assay; settings: UACC-62, 48 h, read-out: Activity
NCI-H322M [30] = assay: Cytotoxicity against human NCI-H322M cells assessed as cell growth at 50 uM after 48 hrs by SRB assay; settings: read-out: Activity
[31] = Cytotoxicity against human COLO205 cells assessed as cell growth at 50 uM after 48 hrs by SRB assay; settings: COLO 205, 48 h, read-out: Activity
[32] = Cytotoxicity against human MOLT4 cells assessed as cell growth at 0.5 uM after 48 hrs by SRB assay; settings: MOLT-4, 48 h, read-out: Activity
[33] = Cytotoxicity against human RXF393 cells assessed as cell growth at 5 nM after 48 hrs by SRB assay; settings: RXF 393, 48 h, read-out: Activity
MDA-MB-231 = assay: Cytotoxicity against human MDA-MB-231 cells assessed as cell growth at 50 nM after 48 hrs by SRB assay; settings: MDA-MB-231, 48 h, read-out: Activity
Malme-3M [34] = assay: Cytotoxicity against human MALME-3M cells assessed as cell growth at 0.5 uM after 48 hrs by SRB assay; settings: read-out: Activity

## C/C(=C(/c1ccc(O)cc1)c1ccc(OCCN2CCCC2)cc1)c1ccccc1
[1]
  growth at 100 µM: -100%
[2]
  growth at 10 µM: -13%
786-0 [3]
  growth at 0.1 µM: 99%
[4]
  growth at 0.01 µM: 92%
[5]
  growth at 0.01 µM: 88%
A498 [6]
  growth at 10 µM: -5%
[7]
  growth at 100 µM: -80%
MDA-MB-435
  growth at 10 µM: -48%
[8]
  growth at 100 µM: -95%
EKVX
  growth at 10 µM: 6%
[9]
  growth at 0.01 µM: 98%
A498 [10]
  growth at 100 µM: -82%
SN12C [11]
  growth at 0.1 µM: 104%
[12]
  growth at 100 µM: -57%
NCI-H322M [13]
  growth at 1 µM: 90%
[14]
  growth at 0.1 µM: 101%
786-0 [15]
  growth at 1 µM: 89%
Malme-3M [16]
  growth at 100 µM: -91%
[17]
  growth at 10 µM: 35%
[18]
  growth at 0.1 µM: 100%
[19]
  growth at 0.01 µM: 103%

## CCCCCCCCCC(=O)Oc1ccc(/C(=C(/C)c2ccccc2)c2ccc(OCCN3CCCC3)cc2)cc1
[20]
  growth at 0.005 µM: 100%
[21]
  growth at 0.5 µM: 61%
[22]
  growth at 0.005 µM: 105%
[23]
  growth at 0.005 µM: 100%
M14
  growth at 0.5 µM: 42%
NCI-H522
  growth at 0.05 µM: 98%
KM12
  growth at 0.05 µM: 98%
[24]
  growth at 50 µM: -76%
MDA-MB-468
  growth at 0.005 µM: 96%
SN12C [25]
  growth at 5 µM: 95%
[26]
  growth at 50 µM: -99%
[27]
  growth at 50 µM: -58%
NCI-H322M [28]
  growth at 0.05 µM: 93%
[29]
  growth at 0.05 µM: 99%
NCI-H322M [30]
  growth at 50 µM: -86%
[31]
  growth at 50 µM: -89%
[32]
  growth at 0.5 µM: 63%
[33]
  growth at 0.005 µM: 101%
MDA-MB-231
  growth at 0.05 µM: 105%
Malme-3M [34]
  growth at 0.5 µM: 61%
